Test results published in patent publication US20250144067A1, “PERSONALIZED STARVATION THERAPY FOR CANCER” (Faeth Therapeutics, Inc., priority 2021, published 2025).
Structures can show the parent of a compound that is named as a salt. Where two headings read alike, the source gives them in different places.

Columns and labels:
[1] = system: NCI-H292 lung cancer cells; assay: FDA drug screening, complete media vs cholesterol-free media without statin (TABLE 1); type: cell-based, human
[2] = system: NCI-H292 lung cancer cells; assay: FDA drug screening, complete media vs cholesterol-free media with simvastatin (TABLE 2); type: cell-based, human
[3] = Complete minus Cholesterol-free, greater than 0 enhanced anti-cancer activity, about 0 neutral, below 0 antagonists
[4] = NCI-H292 cells in cholesterol-free media without statin
[5] = NCI-H292 cells in complete media
[6] = NCI-H292 cells, cholesterol-free media with simvastatin 0.04 μM, FDA drug library screen (TABLE 2)
[7] = NCI-H292 cells, complete media, FDA drug library screen (TABLE 2)
[8] = complete media minus cholesterol-free media + simvastatin (0.04 μM), >0 enhanced anti-cancer activity, about 0 neutral, <0 antagonist
[9] = NCI-H292 cells, cholesterol-free media without statin
[10] = complete vs cholesterol-free media, greater than 0 enhanced anti-cancer activity, about 0 neutral, below 0 antagonists
[11] = NCI-H292 cells, FDA drug library screen, cholesterol-free media with simvastatin 0.04 μM
[12] = NCI-H292 cells, FDA drug library screen, complete media
[13] = complete media minus cholesterol-free media + simvastatin, >0 enhanced anti-cancer activity, about 0 neutral, <0 antagonist
[14] = Complete minus Cholesterol-free, >0 enhanced anti-cancer activity, about 0 neutral, <0 antagonist
[15] = NCI-H292 cells, cholesterol-free media with simvastatin 0.04 μM, cell growth value in FDA drug screen
[16] = NCI-H292 cells, complete media, cell growth value in FDA drug screen
[17] = NCI-H292 cells, cholesterol-free media without statin, FDA drug library screen
[18] = NCI-H292 cells, complete media, FDA drug library screen
[19] = complete vs cholesterol-free media, >0 enhanced anti-cancer activity, about 0 neutral, <0 antagonist
[20] = NCI-H292 cells, FDA library drug in cholesterol-free media with simvastatin 0.04 μM
[21] = NCI-H292 cells, FDA library drug in complete media
[22] = complete media vs cholesterol-free media + simvastatin (0.04 μM), >0 enhanced anti-cancer activity, about 0 neutral, <0 antagonist
[23] = Complete minus Cholesterol-free, greater than 0 enhanced anti-cancer activity, about 0 neutral, below 0 antagonist
[24] = NCI-H292 cells, FDA drug library screen, cholesterol-free media without statin
[25] = NCI-H292 cells, drug in cholesterol-free media with simvastatin 0.04 μM
[26] = NCI-H292 cells, drug in complete media

Molecule: CC(C)OC(=O)CCC/C=C\C[C@@H]1[C@@H](/C=C/[C@@H](O)COc2cccc(C(F)(F)F)c2)[C@H](O)C[C@@H]1O [Travoprost]
- Difference [1, 3]: −1.01
- Cholesterol-free [1, 4]: 1.92
- Complete [1, 5]: 0.9075
- Cholesterol-free media + simvastatin (0.04 μM) [2, 6]: 0.9352
- Complete Media [2, 7]: 0.8818
- Difference [2, 8]: −0.05

Molecule: CC(=O)O[C@]1(C(C)=O)CC[C@H]2[C@@H]3C[C@H](C)C4=CC(=O)C=C[C@]4(C)[C@@]3(F)[C@@H](O)C[C@@]21C [Fluorometholone acetate]
- Cholesterol-free [1, 9]: 0.9866
- Complete ([1]; NCI-H292 cells, complete media): 0.5758
- Difference [1, 10]: −0.41
- Cholesterol-free media + simvastatin (0.04 μM) [2, 11]: 0.6176
- Complete Media [2, 12]: 0.9441
- Difference [2, 13]: 0.33

Molecule: Nc1nc2ccc(OC(F)(F)F)cc2s1 [Riluzole hydrochloride]
- Difference [1, 14]: −0.27
- Cholesterol-free [1, 9]: 1.152
- Complete ([1]; NCI-H292 cells, complete media): 0.8769
- Cholesterol-free media + simvastatin (0.04 μM) [2, 15]: 0.9663
- Complete Media [2, 16]: 0.9877
- Difference [2, 13]: 0.02

Molecule: Oc1c(Cl)cc(Cl)c2cccnc12 [Chloroxine]
- Cholesterol-free [1, 17]: 1.086
- Complete [1, 18]: 1.288
- Difference [1, 19]: 0.20
- Cholesterol-free media + simvastatin (0.04 μM) [2, 15]: 0.8888
- Complete Media [2, 16]: 1.011
- Difference [2, 13]: 0.12

Molecule: CC1CCc2c(N3CCC(O)CC3)c(F)cc3c(=O)c(C(=O)O)cn1c23 (stereo not shown) [Nadifloxacin]
- Difference [1, 14]: −0.03
- Cholesterol-free [1, 17]: 0.9891
- Complete [1, 18]: 0.9558
- Cholesterol-free media + simvastatin (0.04 μM) [2, 20]: 1.859
- Complete Media [2, 21]: 1.054
- Difference [2, 22]: −0.80

Molecule: COc1ncnc(NS(=O)(=O)c2ccc(N)cc2)c1OC [Sulfadoxine]
- Difference [1, 14]: −0.27
- Cholesterol-free [1, 9]: 1.26
- Complete ([1]; NCI-H292 cells, complete media): 0.986
- Cholesterol-free media + simvastatin (0.04 μM) [2, 6]: 1.1
- Complete Media [2, 7]: 1.093
- Difference [2, 8]: −0.01

Molecule: C#Cc1cccc(Nc2ncnc3cc(OCCOC)c(OCCOC)cc23)c1 [Erlotinib]
- Difference [1, 23]: −0.17
- Cholesterol-free [1, 24]: 0.6096
- Complete [1, 12]: 0.4429
- Cholesterol-free media + simvastatin (0.04 μM) [2, 6]: 0.5219
- Complete Media [2, 7]: 0.4599
- Difference [2, 8]: −0.06

Molecule: CC(=O)OCC1=C(C(=O)O)N2C(=O)[C@@H](NC(=O)Cc3cccs3)[C@H]2SC1 [Cephalothin (sodium)]
- Cholesterol-free [1, 17]: 0.5607
- Complete [1, 18]: 1.228
- Difference [1, 19]: 0.67
- Cholesterol-free media + simvastatin (0.04 μM) [2, 25]: 0.9867
- Complete Media [2, 26]: 0.7901
- Difference [2, 22]: −0.20

Molecule: N#Cc1ccc([C@H]2CCc3cncn32)c(F)c1 [Osilodrostat]
- Difference [1, 3]: −0.71
- Cholesterol-free [1, 4]: 1.647
- Complete [1, 5]: 0.935
- Cholesterol-free media + simvastatin (0.04 μM) [2, 11]: 1.26
- Difference [2, 22]: −0.11

Molecule: CC(=O)O[C@H]1C(=O)[C@@]2(C)[C@H]([C@H](OC(=O)c3ccccc3)[C@]3(O)C[C@H](OC(=O)[C@H](O)[C@@H](NC(=O)c4ccccc4)c4ccccc4)C(C)=C1C3(C)C)[C@]1(OC(C)=O)CO[C@@H]1C[C@@H]2O [Paclitaxel]
- Difference [1, 14]: −0.01
- Cholesterol-free [1, 17]: 0.0662
- Complete [1, 18]: 0.05705
- Cholesterol-free media + simvastatin (0.04 μM) [2, 6]: 0.2107
- Complete Media [2, 7]: 0.1648
- Difference [2, 8]: −0.05

Molecule: COc1ccc2c(c1)c(CC(=O)O)c(C)n2C(=O)c1ccc(Cl)cc1 [Indomethacin (sodium hydrate)]
- Cholesterol-free [1, 9]: 1.164
- Complete ([1]; NCI-H292 cells, complete media): 0.8005
- Difference [1, 10]: −0.36
- Cholesterol-free media + simvastatin (0.04 μM) [2, 6]: 0.9744
- Complete Media [2, 7]: 0.911
- Difference [2, 8]: −0.06

Molecule: Bleomycin (hydrochloride)
- Cholesterol-free [1, 17]: 0.4328
- Complete [1, 18]: 0.5195
- Difference ([1]; complete vs cholesterol-free media, […]): 0.09
- Cholesterol-free media + simvastatin (0.04 μM) [2, 11]: 0.184
- Complete Media [2, 12]: 0.1023
- Difference ([2]; complete media vs cholesterol-free media + simvastatin (0.04 μM), […]): −0.08

Molecule: Cc1nnc(SCC2=C(C(=O)O)N3C(=O)[C@@H](NC(=O)Cn4cc(Cl)c(=O)c(Cl)c4)[C@H]3SC2)s1 [Cefazedone]
- Difference ([1]; Complete minus Cholesterol-free, […]): −0.67
- Cholesterol-free [1, 4]: 1.61
- Complete [1, 5]: 0.9409
- Cholesterol-free media + simvastatin (0.04 μM) [2, 11]: 1.153
- Complete Media [2, 12]: 1.591
- Difference ([2]; complete media minus cholesterol-free media + simvastatin, […]): 0.44

Molecule: COc1ccc(CN2CCN(C(c3ccc(F)cc3)c3ccc(F)cc3)CC2)c(OC)c1OC [Lomerizine dihydrochloride]
- Difference [1, 23]: −0.12
- Cholesterol-free [1, 24]: 1.023
- Complete [1, 12]: 0.8999
- Cholesterol-free media + simvastatin (0.04 μM) [2, 20]: 1.178
- Complete Media [2, 21]: 0.8678
- Difference [2, 22]: −0.31

Molecule: CC[C@H]1CN2CCc3cc(OC)c(OC)cc3[C@@H]2C[C@@H]1C[C@H]1NCCc2cc(OC)c(OC)cc21 [Emetine (dihydrochloride hydrate)]
- Cholesterol-free [1]: 0.02305
- Complete [1]: 0.04288
- Difference [1]: 0.02
- Cholesterol-free media + simvastatin (0.04 μM) [2]: 0.05048
- Complete Media [2]: 0.03214
- Difference [2]: −0.02

Molecule: CCOC(=O)C1=C(C)NC(C)=C(C(=O)OC)C1c1cccc([N+](=O)[O-])c1 (stereo not shown) [Nitrendipine]
- Cholesterol-free [1, 9]: 1.587
- Complete ([1]; NCI-H292 cells, complete media): 1.208
- Difference [1, 10]: −0.38
- Cholesterol-free media + simvastatin (0.04 μM) [2, 6]: 1.103
- Complete Media [2, 7]: 1.042
- Difference [2, 8]: −0.06

Molecule: COc1c(C)c2c(c(O)c1C/C=C(\C)CCC(=O)O)C(=O)OC2 [Mycophenolic acid]
- Difference [1, 14]: −0.06
- Cholesterol-free [1, 17]: 0.346
- Complete [1, 18]: 0.2837
- Cholesterol-free media + simvastatin (0.04 μM) [2, 25]: 0.743
- Complete Media [2, 26]: 0.5199
- Difference [2, 22]: −0.22

Molecule: CC1=NN(c2ccc(C)c(C)c2)C(=O)/C1=N\Nc1cccc(-c2cccc(C(=O)O)c2)c1O [Eltrombopag]
- Difference [1, 14]: −0.30
- Cholesterol-free [1, 9]: 1.47
- Cholesterol-free media + simvastatin (0.04 μM) [2, 11]: 1.011
- Complete Media [2, 12]: 0.868
- Difference [2, 22]: −0.14

Molecule: N#Cc1ccc2[nH]cc(CCCCN3CCN(c4ccc5oc(C(N)=O)cc5c4)CC3)c2c1 [Vilazodone]
- Cholesterol-free [1, 17]: 0.8843
- Complete [1, 18]: 1.054
- Difference [1, 19]: 0.17
- Cholesterol-free media + simvastatin (0.04 μM) [2, 15]: 0.8049
- Complete Media [2, 16]: 0.9107
- Difference [2, 13]: 0.11

Molecule: CC/C(=C(\c1ccccc1)c1ccc(OCCN(C)C)cc1)c1ccccc1 [Tamoxifen]
- Difference [1, 14]: 0.05
- Cholesterol-free [1, 17]: 0.6611
- Complete [1, 18]: 0.7069
- Cholesterol-free media + simvastatin (0.04 μM) [2, 11]: 0.7526
- Complete Media [2, 12]: 1.084
- Difference [2, 13]: 0.33

Molecule: Oc1cc(O)c(Cl)cn1 [Gimeracil]
- Difference [1, 14]: 0.07
- Cholesterol-free [1, 17]: 0.8525
- Complete [1, 18]: 0.9232
- Cholesterol-free media + simvastatin (0.04 μM) [2, 20]: 2.327
- Complete Media [2, 21]: 1.491
- Difference [2, 22]: −0.84

Molecule: N[C@@H](C(=O)N[C@@H]1C(=O)N2C(C(=O)O)=C(Cl)CS[C@H]12)c1ccccc1 [Cefaclor]
- Difference [1, 23]: −0.11
- Cholesterol-free [1, 24]: 1.02
- Complete [1, 12]: 0.9111
- Cholesterol-free media + simvastatin (0.04 μM) [2, 15]: 1.593
- Complete Media [2, 16]: 1.696
- Difference [2, 13]: 0.10
